In the kinase profiling compilation of Christmann-Franck et al. (2016):

Legend:
Experiment in all cases: KINOMEscan competition binding
Details in all cases: compound 10.0 µM
PIP4K2B (human) = PIP4K2B (human) (UniProt P78356)
MAP3K11 (human) = MAP3K11 (human) (UniProt Q16584)
NIM1 (human) = NIM1 (human) (UniProt Q8IY84)
PLK4 (human) = PLK4 (human) (UniProt O00444)
[1] = target: JAK1 JH2 pseudokinase (human) (UniProt P23458)
ALK (human) = ALK (human) (UniProt Q9UM73)
KDR (human) = KDR (human) (UniProt P35968)
KDR (human), sequence (P35968 whole entry, looked up): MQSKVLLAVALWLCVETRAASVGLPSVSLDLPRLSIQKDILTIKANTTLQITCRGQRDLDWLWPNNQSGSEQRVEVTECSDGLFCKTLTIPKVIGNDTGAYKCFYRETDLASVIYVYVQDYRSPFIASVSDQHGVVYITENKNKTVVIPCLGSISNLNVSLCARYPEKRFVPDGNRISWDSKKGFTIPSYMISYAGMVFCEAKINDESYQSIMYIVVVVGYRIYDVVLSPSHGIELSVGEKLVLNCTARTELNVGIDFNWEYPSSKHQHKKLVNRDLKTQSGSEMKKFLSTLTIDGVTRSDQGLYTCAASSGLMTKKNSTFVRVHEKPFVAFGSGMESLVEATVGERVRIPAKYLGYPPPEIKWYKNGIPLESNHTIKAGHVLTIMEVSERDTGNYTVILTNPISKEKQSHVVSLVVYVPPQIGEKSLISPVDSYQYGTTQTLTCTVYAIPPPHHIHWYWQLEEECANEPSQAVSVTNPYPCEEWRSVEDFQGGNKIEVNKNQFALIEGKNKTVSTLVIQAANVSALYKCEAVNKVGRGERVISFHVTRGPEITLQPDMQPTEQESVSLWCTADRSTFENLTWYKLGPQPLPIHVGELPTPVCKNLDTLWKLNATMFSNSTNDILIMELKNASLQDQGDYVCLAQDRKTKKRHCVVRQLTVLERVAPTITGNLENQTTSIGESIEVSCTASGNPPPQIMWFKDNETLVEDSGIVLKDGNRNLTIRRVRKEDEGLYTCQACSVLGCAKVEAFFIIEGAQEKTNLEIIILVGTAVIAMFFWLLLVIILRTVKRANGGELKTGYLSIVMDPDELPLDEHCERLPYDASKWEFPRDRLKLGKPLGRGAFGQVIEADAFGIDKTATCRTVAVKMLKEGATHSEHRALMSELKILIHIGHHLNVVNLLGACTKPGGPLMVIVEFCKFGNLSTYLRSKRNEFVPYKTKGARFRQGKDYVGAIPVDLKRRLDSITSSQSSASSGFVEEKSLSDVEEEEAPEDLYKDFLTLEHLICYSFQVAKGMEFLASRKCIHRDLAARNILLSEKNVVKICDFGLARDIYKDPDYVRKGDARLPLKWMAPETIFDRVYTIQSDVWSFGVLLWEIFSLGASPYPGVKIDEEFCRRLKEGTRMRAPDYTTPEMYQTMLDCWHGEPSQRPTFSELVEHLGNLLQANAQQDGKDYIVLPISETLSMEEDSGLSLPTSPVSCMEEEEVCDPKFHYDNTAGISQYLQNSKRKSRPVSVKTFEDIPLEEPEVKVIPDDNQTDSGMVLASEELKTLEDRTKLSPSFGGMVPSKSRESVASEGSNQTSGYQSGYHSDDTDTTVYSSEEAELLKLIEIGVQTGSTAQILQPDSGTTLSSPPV

LYN (human) = LYN (human) (UniProt P07948)
CDK14 (human) = CDK14 (human) (UniProt O94921)
PRKD1 (human) = PRKD1 (human) (UniProt Q15139)
SIK2 (human) = SIK2 (human) (UniProt Q9H0K1)
PKN1 (human) = PKN1 (human) (UniProt Q16512)
GSK3A (human) = GSK3A (human) (UniProt P49840)
CDK17 (human) = CDK17 (human) (UniProt Q00537)
MAP2K5 (human) = MAP2K5 (human) (UniProt Q13163)
[2] = test system: EIF2AK4 KD2 (human), Q9P2K8 [S808G]
EPHA5 (human) = EPHA5 (human) (UniProt P54756)
TNK2 (human) = TNK2 (human) (UniProt Q07912)
FGFR1 (human) = FGFR1 (human) (UniProt P11362)
FGFR1 (human), sequence (P11362 whole entry, looked up): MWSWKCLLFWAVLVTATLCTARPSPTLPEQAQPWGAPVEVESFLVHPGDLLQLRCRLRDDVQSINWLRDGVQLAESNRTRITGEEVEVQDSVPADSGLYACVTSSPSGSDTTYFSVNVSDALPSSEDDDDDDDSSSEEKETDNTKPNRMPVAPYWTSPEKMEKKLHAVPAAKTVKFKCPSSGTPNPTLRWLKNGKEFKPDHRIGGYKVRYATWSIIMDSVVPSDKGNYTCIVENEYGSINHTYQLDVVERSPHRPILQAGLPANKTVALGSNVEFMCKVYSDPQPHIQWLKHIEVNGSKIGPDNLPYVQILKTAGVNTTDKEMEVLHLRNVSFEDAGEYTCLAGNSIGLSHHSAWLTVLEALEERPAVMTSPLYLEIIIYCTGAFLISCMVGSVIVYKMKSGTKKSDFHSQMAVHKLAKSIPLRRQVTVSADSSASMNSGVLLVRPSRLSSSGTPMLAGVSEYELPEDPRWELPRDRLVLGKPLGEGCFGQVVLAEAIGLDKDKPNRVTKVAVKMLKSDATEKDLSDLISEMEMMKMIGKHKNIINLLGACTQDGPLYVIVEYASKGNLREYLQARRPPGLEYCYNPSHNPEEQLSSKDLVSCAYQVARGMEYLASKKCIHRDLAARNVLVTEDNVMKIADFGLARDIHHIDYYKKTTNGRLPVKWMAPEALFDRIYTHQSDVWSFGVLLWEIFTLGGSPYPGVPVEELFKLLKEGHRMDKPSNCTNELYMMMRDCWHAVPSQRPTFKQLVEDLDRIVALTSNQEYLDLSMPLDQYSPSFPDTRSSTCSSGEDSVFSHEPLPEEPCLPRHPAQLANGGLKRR

CSNK2A2 (human) = CSNK2A2 (human) (UniProt P19784)
PRKCH (human) = PRKCH (human) (UniProt P24723)
TNK1 (human) = TNK1 (human) (UniProt Q13470)
PRKX (human) = PRKX (human) (UniProt P51817)
ACVRL1 (human) = ACVRL1 (human) (UniProt P37023)
MINK1 (human) = MINK1 (human) (UniProt Q8N4C8)
MINK1 (human), sequence (Q8N4C8 whole entry, looked up): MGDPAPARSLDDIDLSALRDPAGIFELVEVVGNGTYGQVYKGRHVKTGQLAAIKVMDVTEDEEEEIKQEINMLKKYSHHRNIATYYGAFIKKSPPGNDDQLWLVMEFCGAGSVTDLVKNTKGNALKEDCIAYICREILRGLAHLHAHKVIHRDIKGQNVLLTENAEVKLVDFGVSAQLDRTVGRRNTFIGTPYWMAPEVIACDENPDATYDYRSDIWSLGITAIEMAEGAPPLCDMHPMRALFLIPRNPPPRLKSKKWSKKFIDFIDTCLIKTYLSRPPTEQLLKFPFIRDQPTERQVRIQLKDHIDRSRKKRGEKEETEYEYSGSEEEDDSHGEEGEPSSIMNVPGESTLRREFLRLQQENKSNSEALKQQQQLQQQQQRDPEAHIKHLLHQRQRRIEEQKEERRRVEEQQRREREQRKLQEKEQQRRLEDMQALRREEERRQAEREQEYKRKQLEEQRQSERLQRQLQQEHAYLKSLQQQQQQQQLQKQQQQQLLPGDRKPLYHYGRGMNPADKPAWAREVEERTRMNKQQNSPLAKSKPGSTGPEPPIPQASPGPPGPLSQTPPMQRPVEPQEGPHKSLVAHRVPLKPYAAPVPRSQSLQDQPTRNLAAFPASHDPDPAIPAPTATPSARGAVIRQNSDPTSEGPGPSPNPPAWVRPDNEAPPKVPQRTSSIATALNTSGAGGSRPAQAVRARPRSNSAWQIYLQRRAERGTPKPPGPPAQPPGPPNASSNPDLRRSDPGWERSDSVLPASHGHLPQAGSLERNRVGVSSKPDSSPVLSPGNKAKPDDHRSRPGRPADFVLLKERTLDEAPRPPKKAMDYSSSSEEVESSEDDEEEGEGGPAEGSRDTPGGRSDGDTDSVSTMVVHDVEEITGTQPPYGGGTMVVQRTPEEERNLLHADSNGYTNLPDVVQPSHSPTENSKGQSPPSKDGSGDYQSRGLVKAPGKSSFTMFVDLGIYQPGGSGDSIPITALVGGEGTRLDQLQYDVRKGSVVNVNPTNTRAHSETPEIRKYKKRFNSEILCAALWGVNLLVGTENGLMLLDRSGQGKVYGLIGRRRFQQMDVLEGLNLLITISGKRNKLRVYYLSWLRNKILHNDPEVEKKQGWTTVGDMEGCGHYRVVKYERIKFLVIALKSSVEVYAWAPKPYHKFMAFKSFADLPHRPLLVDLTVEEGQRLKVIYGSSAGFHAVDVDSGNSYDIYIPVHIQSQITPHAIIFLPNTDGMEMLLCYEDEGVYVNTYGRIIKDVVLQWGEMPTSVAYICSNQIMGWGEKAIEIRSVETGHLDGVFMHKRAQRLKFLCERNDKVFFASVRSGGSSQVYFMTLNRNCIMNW

[3] = target: JAK2 JH1 catalytic (human) (UniProt O60674)
[4] = test system: EGFR (human), P00533 [G719S]
DAPK2 (human) = DAPK2 (human) (UniProt Q9UIK4)
CDKL5 (human) = CDKL5 (human) (UniProt O76039)
RPS6KA1 KD2 (human) = RPS6KA1 KD2 (human) (UniProt Q15418)
MYO3A (human) = MYO3A (human) (UniProt Q8NEV4)
MYO3A (human), sequence (Q8NEV4 whole entry, looked up): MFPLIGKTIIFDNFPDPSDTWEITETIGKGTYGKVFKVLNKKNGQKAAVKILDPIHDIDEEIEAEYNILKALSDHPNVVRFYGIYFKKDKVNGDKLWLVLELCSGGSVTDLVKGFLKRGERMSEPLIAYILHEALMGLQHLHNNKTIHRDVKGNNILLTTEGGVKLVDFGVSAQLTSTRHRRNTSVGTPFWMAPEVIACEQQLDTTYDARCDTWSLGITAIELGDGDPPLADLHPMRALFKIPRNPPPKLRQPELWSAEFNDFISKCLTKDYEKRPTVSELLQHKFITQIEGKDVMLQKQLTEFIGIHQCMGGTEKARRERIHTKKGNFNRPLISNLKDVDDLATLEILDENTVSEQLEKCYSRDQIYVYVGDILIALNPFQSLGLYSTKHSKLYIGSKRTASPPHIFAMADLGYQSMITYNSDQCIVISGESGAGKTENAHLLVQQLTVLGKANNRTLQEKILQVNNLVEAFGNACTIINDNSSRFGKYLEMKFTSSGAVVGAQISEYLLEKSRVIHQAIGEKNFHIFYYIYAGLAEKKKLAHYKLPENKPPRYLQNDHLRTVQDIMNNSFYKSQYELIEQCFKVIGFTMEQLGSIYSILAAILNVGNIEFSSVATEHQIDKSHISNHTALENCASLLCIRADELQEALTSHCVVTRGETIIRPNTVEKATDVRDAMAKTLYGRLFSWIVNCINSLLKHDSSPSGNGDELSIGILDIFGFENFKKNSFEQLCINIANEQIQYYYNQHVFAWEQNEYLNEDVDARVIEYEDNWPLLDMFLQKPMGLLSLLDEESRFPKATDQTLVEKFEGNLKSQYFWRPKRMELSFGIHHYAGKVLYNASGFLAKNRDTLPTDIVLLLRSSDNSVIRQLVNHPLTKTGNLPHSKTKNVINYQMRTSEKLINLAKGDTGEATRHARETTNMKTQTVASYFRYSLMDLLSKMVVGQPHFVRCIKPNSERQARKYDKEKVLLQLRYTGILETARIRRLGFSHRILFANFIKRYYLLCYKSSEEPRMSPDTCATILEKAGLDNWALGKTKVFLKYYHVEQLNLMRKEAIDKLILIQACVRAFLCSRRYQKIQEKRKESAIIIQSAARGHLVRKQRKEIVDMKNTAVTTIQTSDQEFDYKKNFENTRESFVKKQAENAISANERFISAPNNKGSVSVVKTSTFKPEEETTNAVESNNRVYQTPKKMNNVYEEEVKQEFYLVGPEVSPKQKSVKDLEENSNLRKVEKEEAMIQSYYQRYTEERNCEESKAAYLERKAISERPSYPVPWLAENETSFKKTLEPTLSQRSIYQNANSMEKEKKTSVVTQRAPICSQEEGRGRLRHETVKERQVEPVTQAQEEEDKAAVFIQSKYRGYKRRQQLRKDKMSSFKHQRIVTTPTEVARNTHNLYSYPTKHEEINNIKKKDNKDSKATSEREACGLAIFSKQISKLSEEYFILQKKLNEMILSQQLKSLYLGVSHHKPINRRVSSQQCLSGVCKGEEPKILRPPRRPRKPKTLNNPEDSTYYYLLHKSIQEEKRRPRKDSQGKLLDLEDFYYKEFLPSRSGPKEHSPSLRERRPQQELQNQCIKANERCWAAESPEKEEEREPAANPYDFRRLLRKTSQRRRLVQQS

AXL (human) = AXL (human) (UniProt P30530)
CSNK1G1 (human) = CSNK1G1 (human) (UniProt Q9HCP0)
CDKL1 (human) = CDKL1 (human) (UniProt Q00532)
PLK2 (human) = PLK2 (human) (UniProt Q9NYY3)
TIE1 (human) = TIE1 (human) (UniProt P35590)
RPS6KB1 (human) = RPS6KB1 (human) (UniProt P23443)
FLT1 (human) = FLT1 (human) (UniProt P17948)
PIK3CB (human) = PIK3CB (human) (UniProt P42338)
[5] = test system: PIK3CA (human), P42336 [I800L]

`Cc1cc([C@@H](C)Nc2ccccc2C(=O)O)c2nc(N3CCOCC3)cc(=O)n2c1` was tested, and the kinase still bound, per cent of control (PIP4K2B (human)) was 100%, the kinase still bound, per cent of control (MAP3K11 (human)) was 100% and the kinase still bound, per cent of control (NIM1 (human)) was 100%. The kinase still bound, per cent of control (PLK4 (human)) was 100%, the kinase still bound, per cent of control [1] was 100% and the kinase still bound, per cent of control (ALK (human)) was 100%. The kinase still bound, per cent of control (KDR (human)) was 100%, the kinase still bound, per cent of control (LYN (human)) was 99% and the kinase still bound, per cent of control (CDK14 (human)) was 100%. The kinase still bound, per cent of control (PRKD1 (human)) was 89%, the kinase still bound, per cent of control (SIK2 (human)) was 100% and the kinase still bound, per cent of control (PKN1 (human)) was 100%. It also gave a kinase still bound, per cent of control (GSK3A (human)) of 100%, a kinase still bound, per cent of control (CDK17 (human)) of 100% and a kinase still bound, per cent of control (MAP2K5 (human)) of 100%. It also gave a kinase still bound, per cent of control [2] of 100%, a kinase still bound, per cent of control (EPHA5 (human)) of 99% and a kinase still bound, per cent of control (TNK2 (human)) of 100%. The kinase still bound, per cent of control (FGFR1 (human)) was 89%, the kinase still bound, per cent of control (CSNK2A2 (human)) was 100% and the kinase still bound, per cent of control (PRKCH (human)) was 82%. It also gave a kinase still bound, per cent of control (TNK1 (human)) of 100%, a kinase still bound, per cent of control (PRKX (human)) of 91% and a kinase still bound, per cent of control (ACVRL1 (human)) of 89%. For the same compound, the kinase still bound, per cent of control (MINK1 (human)) was 100%, the kinase still bound, per cent of control [3] was 62% and the kinase still bound, per cent of control [4] was 98%. The kinase still bound, per cent of control (DAPK2 (human)) was 92%, the kinase still bound, per cent of control (CDKL5 (human)) was 74% and the kinase still bound, per cent of control (RPS6KA1 KD2 (human)) was 84%. It also gave a kinase still bound, per cent of control (MYO3A (human)) of 97%, a kinase still bound, per cent of control (AXL (human)) of 86% and a kinase still bound, per cent of control (CSNK1G1 (human)) of 68%. It also gave a kinase still bound, per cent of control (CDKL1 (human)) of 100%, a kinase still bound, per cent of control (PLK2 (human)) of 99% and a kinase still bound, per cent of control (TIE1 (human)) of 100%. For the same compound, the kinase still bound, per cent of control (RPS6KB1 (human)) was 72% and the kinase still bound, per cent of control (FLT1 (human)) was 83%.
Work on `O=C(O)c1ccc(Nc2ncc3c(n2)-c2ccc(Cl)cc2C(c2c(F)cccc2F)=NC3)cc1` yielded a kinase still bound, per cent of control (PIP4K2B (human)) of 100%, a kinase still bound, per cent of control (MAP3K11 (human)) of 84% and a kinase still bound, per cent of control (NIM1 (human)) of 100%. The kinase still bound, per cent of control (PLK4 (human)) was 14%, the kinase still bound, per cent of control [1] was 80% and the kinase still bound, per cent of control (ALK (human)) was 48%. The kinase still bound, per cent of control (LYN (human)) was 25%, the kinase still bound, per cent of control (CDK14 (human)) was 100% and the kinase still bound, per cent of control (PRKD1 (human)) was 92%. It also gave a kinase still bound, per cent of control (SIK2 (human)) of 49%, a kinase still bound, per cent of control (PIK3CB (human)) of 100% and a kinase still bound, per cent of control (PKN1 (human)) of 83%. For the same compound, the kinase still bound, per cent of control (GSK3A (human)) was 100%, the kinase still bound, per cent of control (CDK17 (human)) was 100% and the kinase still bound, per cent of control (MAP2K5 (human)) was 80%. For the same compound, the kinase still bound, per cent of control [2] was 79%, the kinase still bound, per cent of control (EPHA5 (human)) was 1.5% and the kinase still bound, per cent of control (TNK2 (human)) was 46%. The kinase still bound, per cent of control (FGFR1 (human)) was 14%, the kinase still bound, per cent of control (PRKCH (human)) was 100% and the kinase still bound, per cent of control (TNK1 (human)) was 16%. It also gave a kinase still bound, per cent of control (PRKX (human)) of 75%, a kinase still bound, per cent of control (ACVRL1 (human)) of 64% and a kinase still bound, per cent of control (MINK1 (human)) of 100%. It also gave a kinase still bound, per cent of control [3] of 100%, a kinase still bound, per cent of control (DAPK2 (human)) of 41% and a kinase still bound, per cent of control (CDKL5 (human)) of 100%. The kinase still bound, per cent of control (MYO3A (human)) was 80%, the kinase still bound, per cent of control [5] was 84% and the kinase still bound, per cent of control (AXL (human)) was 4.4%. The kinase still bound, per cent of control (CSNK1G1 (human)) was 37%, the kinase still bound, per cent of control (CDKL1 (human)) was 100% and the kinase still bound, per cent of control (PLK2 (human)) was 29%. It also gave a kinase still bound, per cent of control (RPS6KB1 (human)) of 54% and a kinase still bound, per cent of control (FLT1 (human)) of 12%.
Work on `C[C@@H](Oc1cc(-n2cnc3ccc(CN4CCN(C)CC4)cc32)sc1C(N)=O)c1ccccc1C(F)(F)F` yielded a kinase still bound, per cent of control (PIP4K2B (human)) of 5.8%, a kinase still bound, per cent of control (MAP3K11 (human)) of 75% and a kinase still bound, per cent of control (NIM1 (human)) of 30%. For the same compound, the kinase still bound, per cent of control (PLK4 (human)) was 97%, the kinase still bound, per cent of control [1] was 92% and the kinase still bound, per cent of control (ALK (human)) was 100%. It also gave a kinase still bound, per cent of control (KDR (human)) of 100%, a kinase still bound, per cent of control (LYN (human)) of 99% and a kinase still bound, per cent of control (CDK14 (human)) of 94%. The kinase still bound, per cent of control (PRKD1 (human)) was 20%, the kinase still bound, per cent of control (SIK2 (human)) was 61% and the kinase still bound, per cent of control (PIK3CB (human)) was 0.8%. The kinase still bound, per cent of control (PKN1 (human)) was 46%, the kinase still bound, per cent of control (GSK3A (human)) was 100% and the kinase still bound, per cent of control (CDK17 (human)) was 90%. For the same compound, the kinase still bound, per cent of control (MAP2K5 (human)) was 43%, the kinase still bound, per cent of control [2] was 29% and the kinase still bound, per cent of control (EPHA5 (human)) was 100%. For the same compound, the kinase still bound, per cent of control (TNK2 (human)) was 100%, the kinase still bound, per cent of control (FGFR1 (human)) was 37% and the kinase still bound, per cent of control (CSNK2A2 (human)) was 4.6%. It also gave a kinase still bound, per cent of control (PRKCH (human)) of 90%, a kinase still bound, per cent of control (TNK1 (human)) of 87% and a kinase still bound, per cent of control (PRKX (human)) of 100%. For the same compound, the kinase still bound, per cent of control (ACVRL1 (human)) was 100%, the kinase still bound, per cent of control (MINK1 (human)) was 29% and the kinase still bound, per cent of control [3] was 87%. It also gave a kinase still bound, per cent of control [4] of 100%, a kinase still bound, per cent of control (DAPK2 (human)) of 15% and a kinase still bound, per cent of control (CDKL5 (human)) of 31%. It also gave a kinase still bound, per cent of control (RPS6KA1 KD2 (human)) of 71%, a kinase still bound, per cent of control (MYO3A (human)) of 78% and a kinase still bound, per cent of control [5] of 24%. The kinase still bound, per cent of control (AXL (human)) was 41%, the kinase still bound, per cent of control (CSNK1G1 (human)) was 100% and the kinase still bound, per cent of control (CDKL1 (human)) was 75%. The kinase still bound, per cent of control (PLK2 (human)) was 2.6%, the kinase still bound, per cent of control (RPS6KB1 (human)) was 52% and the kinase still bound, per cent of control (FLT1 (human)) was 100%.
With `CCOc1cc2ncc(C#N)c(Nc3ccc(OCc4ccccn4)c(Cl)c3)c2cc1NC(=O)/C=C/CN(C)C` the kinase still bound, per cent of control (PIP4K2B (human)) was 95%, the kinase still bound, per cent of control (MAP3K11 (human)) was 85% and the kinase still bound, per cent of control (NIM1 (human)) was 90%. It also gave a kinase still bound, per cent of control (PLK4 (human)) of 82%, a kinase still bound, per cent of control [1] of 100% and a kinase still bound, per cent of control (ALK (human)) of 100%. For the same compound, the kinase still bound, per cent of control (KDR (human)) was 94%, the kinase still bound, per cent of control (LYN (human)) was 34% and the kinase still bound, per cent of control (CDK14 (human)) was 97%. The kinase still bound, per cent of control (PRKD1 (human)) was 74%, the kinase still bound, per cent of control (SIK2 (human)) was 58% and the kinase still bound, per cent of control (PIK3CB (human)) was 100%. It also gave a kinase still bound, per cent of control (PKN1 (human)) of 100%, a kinase still bound, per cent of control (GSK3A (human)) of 97% and a kinase still bound, per cent of control (CDK17 (human)) of 100%. For the same compound, the kinase still bound, per cent of control (MAP2K5 (human)) was 1.8%, the kinase still bound, per cent of control [2] was 1.4% and the kinase still bound, per cent of control (EPHA5 (human)) was 100%. The kinase still bound, per cent of control (TNK2 (human)) was 40%, the kinase still bound, per cent of control (FGFR1 (human)) was 100% and the kinase still bound, per cent of control (CSNK2A2 (human)) was 72%. For the same compound, the kinase still bound, per cent of control (PRKCH (human)) was 100%, the kinase still bound, per cent of control (TNK1 (human)) was 100% and the kinase still bound, per cent of control (PRKX (human)) was 100%. The kinase still bound, per cent of control (ACVRL1 (human)) was 100%, the kinase still bound, per cent of control (MINK1 (human)) was 6.8% and the kinase still bound, per cent of control (DAPK2 (human)) was 87%. It also gave a kinase still bound, per cent of control (CDKL5 (human)) of 100%, a kinase still bound, per cent of control (RPS6KA1 KD2 (human)) of 85% and a kinase still bound, per cent of control (MYO3A (human)) of 98%. It also gave a kinase still bound, per cent of control (AXL (human)) of 5.4%, a kinase still bound, per cent of control (CDKL1 (human)) of 100% and a kinase still bound, per cent of control (PLK2 (human)) of 85%. The kinase still bound, per cent of control (RPS6KB1 (human)) was 100% and the kinase still bound, per cent of control (FLT1 (human)) was 95%.
